What was measured:
[1] = tested on: A549 xenograft tumor; test: Xenograft tumor growth of A549 cells transfected with siRNA pre-implantation in CD-1 nude mice; assay type: in vivo, mouse
Protocol: To determine the effect of RRM1 knockdown on tumor growth, A549 cells (human lung cancer cell line; ATCC No. CCL-185) were reverse-transfected prior to implantation in CD-1 nude mice. In 175 cm^2 culture flasks, 10×10^6 A549 cells (in RPMI supplemented with 10% fetal calf serum) were added to pre-made lipoplexes. To make lipoplexes, Lipofectamine RNAiMAX in serum-free RPMI was added to an equal volume of serum-free RPMI containing siRNA (RRM1-2; SEQ ID NO: 4831 (DNA), and SEQ ID NO: 5137 (RNA)) and a control siRNA (SEQ ID NO: 4804 (DNA), and SEQ ID NO: 5301 (RNA)). After addition of cells, the final concentration of siRNA in the flask was 10 nM. Untransfected cells served as a further control. Flasks were incubated at 37° C. for 24 h to allow transfection to proceed.
The cells were harvested by trypsinization 24 h after the transfection, washed twice in PBS and viable cells were counted. Equal numbers of cells (1×10^7) were inoculated into CD-1 nude mice (n=7-9). Briefly, 5 to 7 weeks old nude mice were subcutaneously (s.c.) injected in the right flank with A549 cells in 100 μl PBS. Tumor growth was monitored 3 times per week by measuring tumor sizes using a digital caliper. Tumor volume was expressed in […] using the formula: V=a^2×b×0.52, where a and b represent the minimum and maximum tumor diameter, respectively. Mean tumor volumes calculated from each measurement were then plotted in a standard graph to compare the tumor growth of transfected cells to that of control.
To determine the effect of siRNA-mediated knockdown of HK-II, CAD, IMPDH2, RRM2, SLC16A1 and SLC29A1 on tumor growth, A549 cells (human lung cancer cell line; ATCC No. CCL-185) were reverse-transfected prior to implantation in CD-1 nude mice as described above with siRNAs given in SEQ ID NO: 5307 (DNA), and SEQ ID NO: 5304 (RNA) for RRM2, SEQ ID NO: 4932 (DNA), and SEQ ID NO: 5227 (RNA) for ENT1, SEQ ID NO: 4813 (DNA), and SEQ ID NO: 5119 (RNA) for HK-II, SEQ ID NO: 4827 (DNA), and SEQ ID NO: 5133 (RNA) for CAD, SEQ ID NO: 4879 (DNA), and SEQ ID NO: 5182 (RNA) for IMPDH2 and SEQ ID NO: 4924 (DNA), and SEQ ID NO: 5219 (RNA) for SLC16A1, respectively. The siRNA given in SEQ ID NO: 4804 (DNA), and SEQ ID NO: 5301 (RNA) was used as control.
In two separate experiments, CD-1 mice were divided into five groups that received untransfected A549 cells, cells transfected with control siRNA or three different siRNAs (as listed above), respectively. Cells were transfected in vitro using the method as described in Example 8, and 24 h after transfection, s.c. inoculated into mice. Tumor growth was measured 3 times per week. In the first experiment, mice received cells transfected with siRNA targeting RRM2, HK-II or SLC29A1 and were monitored for 33 days. In the second experiment, mice received cells transfected with siRNA targeting CAD, IMPDH2 or SLC16A1, and were monitored for 26 days. […] Similarly, preliminary data indicated tumor growth rate was reduced for the groups receiving cells transfected with siRNA targeting CAD and SLC16A1. Twenty-six days after cell inoculation, the tumor volume for mice with cells transfected with siRNA targeting CAD or SLC16A1 was 97.2±7.3 mm^3 or 110.1±28.1 mm^3, respectively.

[2] = tested on: target transcript mRNA in A549 cells; test: Level of mRNA of target transcript in A549 cells by quantitative RT-PCR (Tables 12 and 13); assay type: cell-based, human; conditions: 24 h post-transfection; for mRNA knockdown of transporter gene target transcript, 10 nM: 10 nM siRNA
Procedure, shortened: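 Target mRNA was measured by SYBR Green quantitative RT-PCR using random-primed cDNA, normalised to HPRT and Lamin. Samples came from A549 cells 24 h post-transfection with 0.1, 1.0 or 10 nM siRNA.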

[3] = tested on: YBX1 (p47) and p37; test: YBX1 protein level by Western blotting in A549 cells; assay type: cell-based, human; conditions: 10 nM siRNA; 24 h post-transfection; compared with control siRNA
Protocol: Cell lysates were prepared from A549 cells 24 h post-transfection with 10 nM YBX1-specific siRNA (SEQ ID NO: 4982 (DNA), and SEQ ID NO: 5277 (RNA) was labeled 94; SEQ ID NO: 4983 (DNA), and SEQ ID NO: 5278 (RNA) was labeled 95) or control siRNA (SEQ ID NO: 4804 (DNA), and SEQ ID NO: 5301 (RNA); labeled 81). Following Western blotting onto Immobilon-P PVDF filer (Millipore, Bedford Mass.), membranes were probed with a goat anti-human polyclonal antibody specific for YBX1 (AbCam plc, Cambridge, UK), at a concentration of […]. HRP-conjugated donkey anti-goat IgG ([…]; Santa Cruz) was used as a secondary antibody, and signal was detected with an ECL Plus Western blotting Detection System (GE Healthcare, UK) using a Typhoon Scanner (Molecular Dynamics, GE Healthcare, UK).

Substance	mRNA knockdown of transporter gene target transcript, 0.1 nM ([2]; 0.1 nM siRNA)	mRNA knockdown of transporter gene target transcript, 1 nM ([2]; 1 nM siRNA)	mRNA knockdown of transporter gene target transcript, 10 nM [2]	YBX1 (p47) and p37 protein levels [3]	other results
SEQ ID NO: 4924: siRNA targeting SLC16A1 (MCT1) (chain 1 TTAGACTTATCTTTCCCTGCCTTGG; chain 2 UUAGACUUAUCUUUCCCUGCCUUGG; chemistry not given here; one strand in two spellings)	+ (50-70% mRNA knockdown)	++ (70-90% mRNA knockdown)	++ (70-90% mRNA knockdown)		tumor growth rate compared to control groups ([1]; A549 cells transfected with siRNA before s.c. inoculation): reduced; tumor volume ([1]; twenty-six days after cell inoculation, preliminary data): 110.1±28.1 mm^3
SEQ ID NO: 4932: siRNA targeting SLC29A1 (ENT1) (chain 1 TGATAAAGTAGCCGAAGGCACTTTC; chain 2 UGAUAAAGUAGCCGAAGGCACUUUC; chemistry not given here; one strand in two spellings)	++ (70-90% mRNA knockdown)	++ (70-90% mRNA knockdown)	++ (70-90% mRNA knockdown)		tumor growth inhibition compared to the control groups ([1]; cells transfected pre-implantation, monitored 33 or 26 days): No tumor growth inhibition
SEQ ID NO: 4982: siRNA targeting YBX1 (chain 1 TTTGCTGGTAATTGCGTGGAGGACC; chain 2 UUUGCUGGUAAUUGCGUGGAGGACC; chemistry not given here; one strand in two spellings)				reduction in YBX1 (p47) and p37 protein levels	
SEQ ID NO: 4983: siRNA targeting YBX1 (chain 1 TACTGTGGTCGACGCCCATAGGGTC; chain 2 UACUGUGGUCGACGCCCAUAGGGUC; chemistry not given here; one strand in two spellings)				reduction in YBX1 (p47) and p37 protein levels	
SEQ ID NO: 5307: Stealth siRNA targeting RRM2 (chain 1 AATTCATCCCAATGAGCTTCACAGG; chain 2 AAUUCAUCCCAAUGAGCUUCACAGG; Stealth siRNA, chemical pattern not given here; one strand in two spellings)					average tumor size ([1]; thirty-three days after the cell inoculation, preliminary data): 100.1±116.6 mm^3; mRNA knockdown of energy and metabolism gene target transcript, 0.1 nM ([2]; 0.1 nM siRNA): + (50-70% mRNA knockdown); mRNA knockdown of energy and metabolism gene target transcript, 1 nM ([2]; 1 nM siRNA): ++ (70-90% mRNA knockdown)

Source: US20080145313A1, “Compositions and Methods for the Treatment and Prevention of Neoplastic Disorders” (Genesis Research & Development Corporation Limited, priority 2006, published 2008)
